In experiment [1] the target is T1, LK35.2-hPD-L1 cells / PE-labeled PD-1-Ig (Homo sapiens, UniProt Q9NZQ7).
T1 construct: expressed in transfected cells; host or cells: LK35.2 mouse B cell line
Description: LK35.2-hPD-L1 cell binding high-content screening assay. Format: cell-based. The settings on record: cell binding assay, cell line not given; cluster symbol; read-out: CBA IC50 cluster. In a few lines:
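Readout: high-content imaging of PE-PD-1-Ig bound to LK35.2-hPD-L1 cells. Cells plated overnight (RPMI/10% FCS); compound + 1 nM PE-PD-1-Ig, 1 h, 37 °C; 3× dPBS wash before imaging.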

The target of another experiment is T2, Human PD-L1/PD-1 (Homo sapiens, UniProt Q9NZQ7).
T2 construct: made in house; host or cells: HEK293T
In words: HTRF PD-1-Ig/PD-L1-His binding assay (human PD-L1). The settings on record: cluster symbol; read-out: HTRF IC50 cluster. In a few lines: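 Readout: time-resolved FRET between Eu cryptate-labeled anti-Ig (1 nM final) and APC-labeled anti-His (20 nM final) antibodies. These detect interaction of Fc-fused PD-1 with His-tagged human PD-L1 in dPBS containing 0.1% BSA and 0.05% Tween-20.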
(Time-resolved FRET reads energy transfer from a long-lived donor to a nearby acceptor.)

Each structure is given as a SMILES string. pIC50: −log10 of the molar value. Residues, ends and D or L forms follow the SMILES beside them.

As a reminder, the pIC50 is the IC50 on a negative log10 scale, so that one unit is a factor of ten.

T1 sequence (Q9NZQ7 19-290): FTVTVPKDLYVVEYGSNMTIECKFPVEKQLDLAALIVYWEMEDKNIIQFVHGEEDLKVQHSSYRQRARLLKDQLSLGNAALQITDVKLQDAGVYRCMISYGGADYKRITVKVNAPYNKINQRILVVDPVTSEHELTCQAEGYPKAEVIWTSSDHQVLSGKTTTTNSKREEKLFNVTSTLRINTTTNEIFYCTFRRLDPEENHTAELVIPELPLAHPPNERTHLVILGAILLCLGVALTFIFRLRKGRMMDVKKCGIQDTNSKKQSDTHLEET
T2 sequence (Q9NZQ7 with tags, fused parts or gaps): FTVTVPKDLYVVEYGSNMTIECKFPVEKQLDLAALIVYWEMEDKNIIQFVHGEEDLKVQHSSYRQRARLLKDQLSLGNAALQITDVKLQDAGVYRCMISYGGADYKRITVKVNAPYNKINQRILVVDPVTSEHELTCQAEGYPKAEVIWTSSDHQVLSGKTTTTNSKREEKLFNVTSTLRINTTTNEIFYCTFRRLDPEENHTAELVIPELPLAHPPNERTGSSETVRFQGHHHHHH

In the case of `CCCC[C@H]1C(=O)N(C)CC(=O)N[C@@H](CC(=O)O)C(=O)N[C@@H](C(C)C)C(=O)N[C@@H](Cc2ccc(O)cc2)C(=O)N[C@@H](Cc2ccc(O)cc2)C(=O)N(C)CC(=O)N[C@@H](Cc2c[nH]c3ccccc23)C(=O)N[C@@H](Cc2ccc(O)cc2)C(=O)N[C@@H](CC(C)C)C(=O)N[C@H](C(=O)NCC(N)=O)CSCC(=O)N[C@@H](Cc2ccccc2)C(=O)N(C)[C@@H](Cc2ccccc2)C(=O)N1C` [Example 3504] (HELM PEPTIDE1{[O=C(C[*:3])[*:2]].F.[meF].[CCCC[C@@H](C(=O)[*:2])N(C)[*:1]].[Sar].D.V.Y.Y.[Sar].W.Y.L.C.G.[am]}$PEPTIDE1,PEPTIDE1,1:R3-14:R3$$$V2.0), the negative logarithm of the IC50 (pIC50) in experiment [1] was less than 7.13; on Human PD-L1/PD-1 it was less than 7.52.

As to `CCCC[C@H]1C(=O)N(C)CC(=O)N[C@@H](CC(=O)O)C(=O)N[C@@H](C(C)C)C(=O)N(C)[C@@H](Cc2ccccc2)C(=O)N[C@@H](CC(C)C)C(=O)N(C)CC(=O)N[C@@H](Cc2c[nH]c3ccccc23)C(=O)N[C@@H](Cc2ccc(O)cc2)C(=O)N[C@@H](CC(C)C)C(=O)N[C@H](C(=O)NCC(N)=O)CSCC(=O)N[C@@H](Cc2ccccc2)C(=O)N(C)[C@@H](Cc2ccccc2)C(=O)N1C` [Example 3505] (HELM PEPTIDE1{[O=C(C[*:3])[*:2]].F.[meF].[CCCC[C@@H](C(=O)[*:2])N(C)[*:1]].[Sar].D.V.[meF].L.[Sar].W.Y.L.C.G.[am]}$PEPTIDE1,PEPTIDE1,1:R3-14:R3$$$V2.0), the pIC50 in experiment [1] is 7.14 to 8.32; at Human PD-L1/PD-1, 7.52 to 8.17.

As to `CCCC[C@H]1C(=O)N(C)CC(=O)N[C@@H](CC(=O)O)C(=O)N[C@@H](C(C)C)C(=O)N(C)[C@@H](Cc2ccccc2)C(=O)N[C@@H](CCCNC(=N)N)C(=O)N(C)CC(=O)N[C@@H](Cc2c[nH]c3ccccc23)C(=O)N[C@@H](Cc2ccc(O)cc2)C(=O)N[C@@H](CC(C)C)C(=O)N[C@H](C(=O)NCC(N)=O)CSCC(=O)N[C@@H](Cc2ccccc2)C(=O)N(C)[C@@H](Cc2ccccc2)C(=O)N1C` [Example 3506] (HELM PEPTIDE1{[O=C(C[*:3])[*:2]].F.[meF].[CCCC[C@@H](C(=O)[*:2])N(C)[*:1]].[Sar].D.V.[meF].R.[Sar].W.Y.L.C.G.[am]}$PEPTIDE1,PEPTIDE1,1:R3-14:R3$$$V2.0), the pIC50 is 7.14 to 8.32 in experiment [1] and 8.17 to 9.41 on Human PD-L1/PD-1.

With `CCCC[C@H]1C(=O)N(C)CC(=O)N[C@@H](CC(=O)O)C(=O)N[C@@H](C(C)C)C(=O)N(C)[C@@H](Cc2ccccc2)C(=O)N[C@@H](CCC(=O)O)C(=O)N(C)CC(=O)N[C@@H](Cc2c[nH]c3ccccc23)C(=O)N[C@@H](Cc2ccc(O)cc2)C(=O)N[C@@H](CC(C)C)C(=O)N[C@H](C(=O)NCC(N)=O)CSCC(=O)N[C@@H](Cc2ccccc2)C(=O)N(C)[C@@H](Cc2ccccc2)C(=O)N1C` [Example 3507] (HELM PEPTIDE1{[O=C(C[*:3])[*:2]].F.[meF].[CCCC[C@@H](C(=O)[*:2])N(C)[*:1]].[Sar].D.V.[meF].E.[Sar].W.Y.L.C.G.[am]}$PEPTIDE1,PEPTIDE1,1:R3-14:R3$$$V2.0), the pIC50 is less than 7.13 in experiment [1] and 7.52 to 8.17 on Human PD-L1/PD-1.

Regarding `CCCC[C@H]1C(=O)N(C)CC(=O)N[C@@H](CC(=O)O)C(=O)N[C@@H](C(C)C)C(=O)N(C)[C@@H](Cc2ccccc2)C(=O)N[C@@H](Cc2ccc(O)cc2)C(=O)N(C)CC(=O)N[C@@H](Cc2c[nH]c3ccccc23)C(=O)N[C@@H](Cc2ccc(O)cc2)C(=O)N[C@@H](CCCNC(=N)N)C(=O)N[C@H](C(=O)NCC(N)=O)CSCC(=O)N[C@@H](Cc2ccccc2)C(=O)N(C)[C@@H](Cc2ccccc2)C(=O)N1C` [Example 3508] (HELM PEPTIDE1{[O=C(C[*:3])[*:2]].F.[meF].[CCCC[C@@H](C(=O)[*:2])N(C)[*:1]].[Sar].D.V.[meF].Y.[Sar].W.Y.R.C.G.[am]}$PEPTIDE1,PEPTIDE1,1:R3-14:R3$$$V2.0), the values for the pIC50 (in experiment [1]; at Human PD-L1/PD-1) were 7.14 to 8.32 and 8.17 to 9.41, respectively.

Consider `CCCC[C@H]1C(=O)N(C)CC(=O)N[C@@H](CC(=O)O)C(=O)N[C@@H](C(C)C)C(=O)N(C)[C@@H](Cc2ccccc2)C(=O)N[C@@H](Cc2ccc(O)cc2)C(=O)N(C)CC(=O)N[C@@H](Cc2c[nH]c3ccccc23)C(=O)N[C@@H](Cc2ccc(O)cc2)C(=O)N[C@@H](CCC(=O)O)C(=O)N[C@H](C(=O)NCC(N)=O)CSCC(=O)N[C@@H](Cc2ccccc2)C(=O)N(C)[C@@H](Cc2ccccc2)C(=O)N1C` [Example 3509] (HELM PEPTIDE1{[O=C(C[*:3])[*:2]].F.[meF].[CCCC[C@@H](C(=O)[*:2])N(C)[*:1]].[Sar].D.V.[meF].Y.[Sar].W.Y.E.C.G.[am]}$PEPTIDE1,PEPTIDE1,1:R3-14:R3$$$V2.0), for which the negative-log IC50 (pIC50) in experiment [1] is less than 7.13; at Human PD-L1/PD-1, 7.52 to 8.17.

For `CCCCC1C(=O)N[C@@H](CCCNC(=N)N)C(=O)N[C@@H](CC(=O)O)C(=O)N[C@@H](C(C)C)C(=O)N(C)[C@@H](Cc2ccccc2)C(=O)N[C@@H](Cc2ccc(O)cc2)C(=O)N(C)CC(=O)N[C@@H](Cc2c[nH]c3ccccc23)C(=O)N[C@@H](Cc2ccc(O)cc2)C(=O)N[C@@H](CC(C)C)C(=O)N[C@H](C(=O)NCC(N)=O)CSCC(=O)N[C@@H](Cc2ccccc2)C(=O)N(C)[C@@H](Cc2ccccc2)C(=O)N1C` (stereo partly drawn) [Example 3510] (HELM PEPTIDE1{[O=C(C[*:3])[*:2]].F.[meF].[CCCCC(C(=O)[*:2])N(C)[*:1]].R.D.V.[meF].Y.[Sar].W.Y.L.C.G.[am]}$PEPTIDE1,PEPTIDE1,1:R3-14:R3$$$V2.0), the pIC50 in experiment [1] was less than 7.13; on Human PD-L1/PD-1 it was less than 7.52.

With `CCCC[C@H]1C(=O)N(C)CC(=O)N[C@@H](CC(=O)O)C(=O)N[C@@H](C(C)C)C(=O)N(C)[C@@H](Cc2ccccc2)C(=O)N[C@@H](Cc2ccc(O)cc2)C(=O)N(C)[C@@H](Cc2ccc(O)cc2)C(=O)N[C@@H](Cc2c[nH]c3ccccc23)C(=O)N[C@@H](Cc2ccc(O)cc2)C(=O)N[C@@H](CC(C)C)C(=O)N[C@H](C(=O)NCC(N)=O)CSCC(=O)N[C@@H](Cc2ccccc2)C(=O)N(C)[C@@H](Cc2ccccc2)C(=O)N1C` [Example 3511] (HELM PEPTIDE1{[O=C(C[*:3])[*:2]].F.[meF].[CCCC[C@@H](C(=O)[*:2])N(C)[*:1]].[Sar].D.V.[meF].Y.[meY].W.Y.L.C.G.[am]}$PEPTIDE1,PEPTIDE1,1:R3-14:R3$$$V2.0), the values for the negative logarithm of the IC50 (pIC50) (in experiment [1]; on Human PD-L1/PD-1) were 7.14 to 8.32 and less than 7.52, respectively.

In the case of `CCCC[C@H]1C(=O)N(C)CC(=O)N[C@@H](CC(=O)O)C(=O)N[C@@H](C(C)C)C(=O)N(C)[C@@H](Cc2ccccc2)C(=O)N[C@@H](Cc2ccc(O)cc2)C(=O)N(C)[C@@H](CCC(=O)O)C(=O)N[C@@H](Cc2c[nH]c3ccccc23)C(=O)N[C@@H](Cc2ccc(O)cc2)C(=O)N[C@@H](CC(C)C)C(=O)N[C@H](C(=O)NCC(N)=O)CSCC(=O)N[C@@H](Cc2ccccc2)C(=O)N(C)[C@@H](Cc2ccccc2)C(=O)N1C` [Example 3512] (HELM PEPTIDE1{[O=C(C[*:3])[*:2]].F.[meF].[CCCC[C@@H](C(=O)[*:2])N(C)[*:1]].[Sar].D.V.[meF].Y.[meE].W.Y.L.C.G.[am]}$PEPTIDE1,PEPTIDE1,1:R3-14:R3$$$V2.0), the pIC50 in experiment [1] was 7.14 to 8.32; at Human PD-L1/PD-1 it was 8.17 to 9.41.

(Values after patent US9850283B2, “Macrocyclic inhibitors of the PD-1/PD-L1 and CD80(B7-1)/PD-L1 protein/protein interactions” (BRISTOL-MYERS SQUIBB COMPANY, priority 2013, dated 2017).)
